Experimental data as given in paper doi:10.1101/2021.09.30.462449v1 (biorxiv, 2021).

What was measured:
PL^pro = PL^pro (Severe acute respiratory syndrome coronavirus 2, UniProt P0DTD1); experiment: FRET peptide cleavage assay; assay type: biochemical
AURKC (Aurora C) = AURKC (Aurora C) (Homo sapiens, UniProt Q9UQB9); experiment: biochemical; settings: read-out: % inhibition mean (Z'Lyte)
PRKD2 (PKD2) = PRKD2 (PKD2) (Homo sapiens, UniProt Q9BZL6); experiment: biochemical; settings: read-out: % inhibition mean (Z'Lyte)
ABL2 (Arg) = ABL2 (Arg) (Homo sapiens, UniProt P42684); experiment: biochemical; settings: read-out: % inhibition mean (Z'Lyte)
FGFR3 K650E = FGFR3 K650E (Homo sapiens, UniProt P22607, K650E); experiment: biochemical; settings: read-out: % inhibition mean (Z'Lyte)
TEK (Tie2) = TEK (Tie2) (Homo sapiens, UniProt Q02763); experiment: biochemical; settings: read-out: % inhibition mean (Z'Lyte)
RPS6KA6 (RSK4) = RPS6KA6 (RSK4) (Homo sapiens, UniProt Q9UK32); experiment: biochemical; settings: read-out: % inhibition mean (Z'Lyte)
NEK9 = NEK9 (Homo sapiens, UniProt Q8TD19); experiment: biochemical; settings: read-out: % inhibition mean (Z'Lyte)
NEK9, sequence (Q8TD19 whole entry): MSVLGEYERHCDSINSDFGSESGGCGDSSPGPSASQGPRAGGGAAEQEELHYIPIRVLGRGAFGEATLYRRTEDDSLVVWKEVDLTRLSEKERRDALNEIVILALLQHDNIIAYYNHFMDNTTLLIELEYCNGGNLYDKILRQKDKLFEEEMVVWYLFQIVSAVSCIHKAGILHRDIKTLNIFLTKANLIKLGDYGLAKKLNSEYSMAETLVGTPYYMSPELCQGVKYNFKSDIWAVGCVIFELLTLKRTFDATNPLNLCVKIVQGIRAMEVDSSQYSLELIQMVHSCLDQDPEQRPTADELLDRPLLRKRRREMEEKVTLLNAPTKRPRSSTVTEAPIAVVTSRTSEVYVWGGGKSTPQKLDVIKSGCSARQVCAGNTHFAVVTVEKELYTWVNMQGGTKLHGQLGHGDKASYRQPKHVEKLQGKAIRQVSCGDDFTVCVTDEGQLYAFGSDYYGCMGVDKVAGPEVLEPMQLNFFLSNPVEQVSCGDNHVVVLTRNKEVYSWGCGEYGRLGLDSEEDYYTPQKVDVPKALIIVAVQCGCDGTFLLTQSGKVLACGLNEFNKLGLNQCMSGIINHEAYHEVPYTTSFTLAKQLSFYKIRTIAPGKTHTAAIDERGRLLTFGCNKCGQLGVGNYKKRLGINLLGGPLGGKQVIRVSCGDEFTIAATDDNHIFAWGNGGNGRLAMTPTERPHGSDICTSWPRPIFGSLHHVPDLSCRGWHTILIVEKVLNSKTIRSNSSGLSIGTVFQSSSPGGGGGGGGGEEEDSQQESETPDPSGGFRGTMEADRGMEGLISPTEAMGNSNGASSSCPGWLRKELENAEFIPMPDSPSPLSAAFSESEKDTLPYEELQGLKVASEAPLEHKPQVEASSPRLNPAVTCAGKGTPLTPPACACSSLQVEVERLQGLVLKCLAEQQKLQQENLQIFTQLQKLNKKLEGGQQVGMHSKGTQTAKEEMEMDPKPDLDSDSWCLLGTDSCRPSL

IRAK4 = IRAK4 (Homo sapiens, UniProt Q9NWZ3); experiment: biochemical; settings: read-out: % inhibition mean (Z'Lyte)
PRKX = PRKX (Homo sapiens, UniProt P51817); experiment: biochemical; settings: read-out: % inhibition mean (Z'Lyte)
AKT1 (PKB alpha) = AKT1 (PKB alpha) (Homo sapiens, UniProt P31749); experiment: biochemical; settings: read-out: % inhibition mean (Z'Lyte)
AURKA (Aurora A) = AURKA (Aurora A) (Homo sapiens, UniProt O14965); experiment: biochemical; settings: read-out: % inhibition mean (Z'Lyte)
DYRK1A = DYRK1A (Homo sapiens, UniProt Q13627); experiment: biochemical; settings: read-out: % inhibition mean (Z'Lyte)
CDK5/p35 = CDK5/p35 (Homo sapiens, UniProt Q00535); experiment: biochemical; settings: read-out: % inhibition mean (Z'Lyte)
BLK = BLK (Homo sapiens, UniProt P51451); experiment: biochemical; settings: read-out: % inhibition mean (Z'Lyte)
BLK, sequence (P51451 whole entry): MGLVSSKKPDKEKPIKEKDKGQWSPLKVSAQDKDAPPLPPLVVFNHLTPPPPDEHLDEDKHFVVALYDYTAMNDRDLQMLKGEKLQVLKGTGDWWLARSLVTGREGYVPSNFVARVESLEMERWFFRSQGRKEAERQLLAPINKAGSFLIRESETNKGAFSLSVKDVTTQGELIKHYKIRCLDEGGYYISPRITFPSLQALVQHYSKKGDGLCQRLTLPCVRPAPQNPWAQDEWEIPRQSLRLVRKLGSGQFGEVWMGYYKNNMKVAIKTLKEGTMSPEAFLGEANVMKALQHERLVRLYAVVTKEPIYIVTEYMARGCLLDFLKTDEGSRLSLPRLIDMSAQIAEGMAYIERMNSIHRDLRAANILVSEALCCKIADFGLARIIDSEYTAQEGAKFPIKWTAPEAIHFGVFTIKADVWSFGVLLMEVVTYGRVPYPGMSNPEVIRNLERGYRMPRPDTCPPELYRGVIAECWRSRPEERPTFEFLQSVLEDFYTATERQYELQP

AMPK (A2/B1/G3) = AMPK (A2/B1/G3) (Homo sapiens, UniProt P54646); experiment: biochemical; settings: read-out: % inhibition mean (Z'Lyte)
ADRBK2 (GRK3) = ADRBK2 (GRK3) (Homo sapiens, UniProt P35626); experiment: biochemical; settings: read-out: % inhibition mean (Z'Lyte)
ADRBK2 (GRK3), sequence (P35626 whole entry): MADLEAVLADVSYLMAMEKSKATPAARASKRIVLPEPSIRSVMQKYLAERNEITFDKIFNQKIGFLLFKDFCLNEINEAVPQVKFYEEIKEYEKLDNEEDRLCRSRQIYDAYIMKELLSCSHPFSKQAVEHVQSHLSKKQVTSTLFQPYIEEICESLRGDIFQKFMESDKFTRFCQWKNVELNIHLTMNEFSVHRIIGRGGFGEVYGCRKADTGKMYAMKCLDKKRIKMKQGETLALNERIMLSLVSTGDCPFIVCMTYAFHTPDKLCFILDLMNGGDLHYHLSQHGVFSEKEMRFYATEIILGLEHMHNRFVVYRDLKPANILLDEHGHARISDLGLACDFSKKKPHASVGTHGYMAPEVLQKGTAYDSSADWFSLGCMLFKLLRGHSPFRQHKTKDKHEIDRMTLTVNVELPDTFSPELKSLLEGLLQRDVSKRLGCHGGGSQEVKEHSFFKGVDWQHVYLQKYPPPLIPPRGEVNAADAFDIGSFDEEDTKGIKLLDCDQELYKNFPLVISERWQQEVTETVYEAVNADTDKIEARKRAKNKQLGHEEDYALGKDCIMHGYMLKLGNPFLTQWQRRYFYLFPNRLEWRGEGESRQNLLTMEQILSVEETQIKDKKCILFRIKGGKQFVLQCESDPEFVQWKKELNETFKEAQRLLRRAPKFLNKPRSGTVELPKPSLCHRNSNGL

INSRR (IRR) = INSRR (IRR) (Homo sapiens, UniProt P14616); experiment: biochemical; settings: read-out: % inhibition mean (Z'Lyte)
NTRK3 (TRKC) = NTRK3 (TRKC) (Homo sapiens, UniProt Q16288); experiment: biochemical; settings: read-out: % inhibition mean (Z'Lyte)
RET Y791F = RET Y791F (Homo sapiens, UniProt P07949, Y791F); experiment: biochemical; settings: read-out: % inhibition mean (Z'Lyte)
RET Y791F, sequence (P07949 whole entry Y791F): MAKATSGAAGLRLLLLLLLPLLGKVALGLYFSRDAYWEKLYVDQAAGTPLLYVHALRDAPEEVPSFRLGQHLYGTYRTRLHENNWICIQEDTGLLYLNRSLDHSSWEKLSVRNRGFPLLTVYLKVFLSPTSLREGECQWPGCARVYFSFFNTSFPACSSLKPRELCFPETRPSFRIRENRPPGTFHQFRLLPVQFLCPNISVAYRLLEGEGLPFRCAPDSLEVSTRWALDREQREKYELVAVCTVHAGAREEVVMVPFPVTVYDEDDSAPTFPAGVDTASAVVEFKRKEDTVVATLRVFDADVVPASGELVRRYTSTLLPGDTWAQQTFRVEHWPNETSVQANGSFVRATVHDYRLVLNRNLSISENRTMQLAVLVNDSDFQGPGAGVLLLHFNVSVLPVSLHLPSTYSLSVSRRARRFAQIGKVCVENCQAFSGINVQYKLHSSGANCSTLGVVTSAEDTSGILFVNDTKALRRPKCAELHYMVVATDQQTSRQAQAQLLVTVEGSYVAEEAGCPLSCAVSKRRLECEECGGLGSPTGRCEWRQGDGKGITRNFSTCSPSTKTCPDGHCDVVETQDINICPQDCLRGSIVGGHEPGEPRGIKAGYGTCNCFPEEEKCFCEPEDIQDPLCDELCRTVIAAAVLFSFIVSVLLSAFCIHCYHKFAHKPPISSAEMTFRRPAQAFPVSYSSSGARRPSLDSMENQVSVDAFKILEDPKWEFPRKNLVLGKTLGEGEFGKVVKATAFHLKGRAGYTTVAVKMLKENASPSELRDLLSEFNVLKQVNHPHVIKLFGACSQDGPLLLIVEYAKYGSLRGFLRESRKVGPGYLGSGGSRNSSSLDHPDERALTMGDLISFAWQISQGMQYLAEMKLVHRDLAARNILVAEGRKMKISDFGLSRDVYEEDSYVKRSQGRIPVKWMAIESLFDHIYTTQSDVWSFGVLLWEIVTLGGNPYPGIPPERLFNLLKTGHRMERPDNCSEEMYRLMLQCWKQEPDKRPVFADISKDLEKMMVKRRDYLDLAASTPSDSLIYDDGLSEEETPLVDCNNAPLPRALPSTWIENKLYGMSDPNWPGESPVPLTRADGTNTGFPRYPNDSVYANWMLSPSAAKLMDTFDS

FGFR2 N549H = FGFR2 N549H (Homo sapiens, UniProt P21802, N549H); experiment: biochemical; settings: read-out: % inhibition mean (Z'Lyte)
FGFR2 N549H, sequence (P21802 whole entry N549H): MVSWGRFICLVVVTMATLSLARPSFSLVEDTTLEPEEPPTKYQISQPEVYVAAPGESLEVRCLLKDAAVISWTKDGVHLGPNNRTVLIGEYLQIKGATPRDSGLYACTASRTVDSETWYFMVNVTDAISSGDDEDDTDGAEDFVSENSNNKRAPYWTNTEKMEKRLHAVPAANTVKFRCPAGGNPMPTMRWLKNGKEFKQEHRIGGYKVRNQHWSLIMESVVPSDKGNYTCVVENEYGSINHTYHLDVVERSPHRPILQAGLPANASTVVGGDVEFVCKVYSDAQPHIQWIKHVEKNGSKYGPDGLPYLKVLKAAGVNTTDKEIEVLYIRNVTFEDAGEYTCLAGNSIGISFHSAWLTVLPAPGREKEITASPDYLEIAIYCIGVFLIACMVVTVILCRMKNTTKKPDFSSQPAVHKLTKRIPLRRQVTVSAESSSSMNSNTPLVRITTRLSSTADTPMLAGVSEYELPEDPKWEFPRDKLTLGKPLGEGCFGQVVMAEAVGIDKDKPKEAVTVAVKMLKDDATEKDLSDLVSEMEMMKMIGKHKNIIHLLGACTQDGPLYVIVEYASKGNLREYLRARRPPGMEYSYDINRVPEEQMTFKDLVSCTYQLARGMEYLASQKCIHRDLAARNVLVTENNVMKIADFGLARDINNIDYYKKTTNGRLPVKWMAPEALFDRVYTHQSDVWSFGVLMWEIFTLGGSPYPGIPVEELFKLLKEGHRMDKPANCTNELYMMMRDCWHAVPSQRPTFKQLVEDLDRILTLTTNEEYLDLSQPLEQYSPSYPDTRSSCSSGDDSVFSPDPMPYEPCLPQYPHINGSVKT

GSK3A (GSK3 alpha) = GSK3A (GSK3 alpha) (Homo sapiens, UniProt P49840); experiment: biochemical; settings: read-out: % inhibition mean (Z'Lyte)
GSK3A (GSK3 alpha), sequence (P49840 whole entry): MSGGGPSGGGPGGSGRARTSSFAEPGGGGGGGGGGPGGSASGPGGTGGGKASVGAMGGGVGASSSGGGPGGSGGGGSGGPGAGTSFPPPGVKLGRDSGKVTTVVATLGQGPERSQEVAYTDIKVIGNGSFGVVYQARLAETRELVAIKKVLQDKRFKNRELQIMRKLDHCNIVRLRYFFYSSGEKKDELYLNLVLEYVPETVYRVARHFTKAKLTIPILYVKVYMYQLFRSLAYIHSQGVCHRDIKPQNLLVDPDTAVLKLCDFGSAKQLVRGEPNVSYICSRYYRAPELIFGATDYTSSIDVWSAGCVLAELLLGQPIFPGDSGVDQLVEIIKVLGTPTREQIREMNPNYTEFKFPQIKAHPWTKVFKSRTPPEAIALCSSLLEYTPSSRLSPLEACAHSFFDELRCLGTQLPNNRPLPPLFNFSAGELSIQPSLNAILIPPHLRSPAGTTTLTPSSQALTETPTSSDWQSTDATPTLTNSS

BMX = BMX (Homo sapiens, UniProt P51813); experiment: biochemical; settings: read-out: % inhibition mean (Z'Lyte)
FLT3 D835Y = FLT3 D835Y (Homo sapiens, UniProt P36888, D835Y); experiment: biochemical; settings: read-out: % inhibition mean (Z'Lyte)
PDGFRA D842V = PDGFRA D842V (Homo sapiens, UniProt P16234, D842V); experiment: biochemical; settings: read-out: % inhibition mean (Z'Lyte)
PTK2B (FAK2) = PTK2B (FAK2) (Homo sapiens, UniProt Q14289); experiment: biochemical; settings: read-out: % inhibition mean (Z'Lyte)
FGFR2 = FGFR2 (Homo sapiens, UniProt P21802); experiment: biochemical; settings: read-out: % inhibition mean (Z'Lyte)
FGFR2, sequence (P21802 whole entry): as the sequence (P21802 whole entry N549H) above, with H549N counted along it

FRAP1 (mTOR) = FRAP1 (mTOR) (Homo sapiens, UniProt P42345); experiment: biochemical; settings: read-out: % inhibition mean (Z'Lyte)
RET V804L = RET V804L (Homo sapiens, UniProt P07949, V804L); experiment: biochemical; settings: read-out: % inhibition mean (Z'Lyte)
RET V804L, sequence (P07949 whole entry V804L): as the sequence (P07949 whole entry Y791F) above, with F791Y, V804L counted along it

AURKC (Aurora C), sequence (Q9UQB9 whole entry): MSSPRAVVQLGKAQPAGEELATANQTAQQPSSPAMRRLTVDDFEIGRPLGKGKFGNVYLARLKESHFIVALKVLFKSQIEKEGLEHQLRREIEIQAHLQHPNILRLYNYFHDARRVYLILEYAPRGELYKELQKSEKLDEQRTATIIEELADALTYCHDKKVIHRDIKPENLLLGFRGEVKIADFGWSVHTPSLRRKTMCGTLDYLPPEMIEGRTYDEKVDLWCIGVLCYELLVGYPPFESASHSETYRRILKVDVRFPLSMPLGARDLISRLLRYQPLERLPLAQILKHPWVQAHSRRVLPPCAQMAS

Q: With `COc1ccc2nc3cc(Cl)ccc3c(Nc3cc(CN4CCCC4)c(O)c(CN4CCCC4)c3)c2n1` [Pyronaridine, 4-[(7-Chloro-2-methoxybenzo[b][1,5]naphthyridin-10-yl)amino]-2,6-bis(1-pyrrolidinylmethyl)phenol phosphate (1:4)] as the molecule, how does the IC50 (PL^pro) read?
A: 1.86 ± 0.58 µM

Q: What about the inhibition at 1 µM (AURKC (Aurora C)) of the same molecule?
A: -11%

Q: And the inhibition at 1 µM (PRKD2 (PKD2))?
A: -4%

Q: What about the inhibition at 1 µM (ABL2 (Arg)) of the same molecule?
A: 2%

Q: What about the inhibition at 1 µM (FGFR3 K650E) of the same molecule?
A: -4%

Q: What about the inhibition at 1 µM (TEK (Tie2)) of the same molecule?
A: 5%

Q: And the inhibition at 1 µM (RPS6KA6 (RSK4))?
A: 4%

Q: What about the inhibition at 1 µM (NEK9) of the same molecule?
A: 0%

Q: What about the inhibition at 1 µM (IRAK4) of the same molecule?
A: -6%

Q: What about the inhibition at 1 µM (PRKX) of the same molecule?
A: 5%

Q: What about the inhibition at 1 µM (AKT1 (PKB alpha)) of the same molecule?
A: 4%

Q: What about the inhibition at 1 µM (AURKA (Aurora A)) of the same molecule?
A: 9%

Q: What about the inhibition at 1 µM (DYRK1A) of the same molecule?
A: 3%

Q: What about the inhibition at 1 µM (CDK5/p35) of the same molecule?
A: 3%

Q: And the inhibition at 1 µM (BLK)?
A: 3%

Q: And the inhibition at 1 µM (AMPK (A2/B1/G3))?
A: 2%

Q: And the inhibition at 1 µM (ADRBK2 (GRK3))?
A: -5%

Q: And the inhibition at 1 µM (INSRR (IRR))?
A: -1%

Q: What about the inhibition at 1 µM (NTRK3 (TRKC)) of the same molecule?
A: 2%

Q: What about the inhibition at 1 µM (RET Y791F) of the same molecule?
A: 5%

Q: And the inhibition at 1 µM (FGFR2 N549H)?
A: 2%

Q: What about the inhibition at 1 µM (GSK3A (GSK3 alpha)) of the same molecule?
A: 4%

Q: And the inhibition at 1 µM (BMX)?
A: 11%

Q: What about the inhibition at 1 µM (FLT3 D835Y) of the same molecule?
A: 2%

Q: What about the inhibition at 1 µM (PDGFRA D842V) of the same molecule?
A: -1%

Q: And the inhibition at 1 µM (PTK2B (FAK2))?
A: -1%

Q: What about the inhibition at 1 µM (FGFR2) of the same molecule?
A: -1%

Q: What about the inhibition at 1 µM (FRAP1 (mTOR)) of the same molecule?
A: 1%

Q: And the inhibition at 1 µM (RET V804L)?
A: 1%
